Measured values taken from ChEMBL document CHEMBL5042547, “Activable Targeted Protein Degradation Platform Based on Light-triggered Singlet Oxygen” (J Med Chem, 2022).
pEC50, pIC50, pKi: −log10 of the molar value. The source made the active and inactive calls.

Experiments:
[1] = target: T1, Estrogen receptor (Homo sapiens) (UniProt P03372); experiment: Induction of degradation of human ERalpha in human MCF7 cells at 0.01 to 1 uM incubated for 6 hrs followed by irradiated light of 460 nm for 45 mins measured after 3 hrs by immunoblot analysis; assay type: cell-based; details: dose 0.01-1 µM, time 9.0 hrs
T1 sequence (whole entry): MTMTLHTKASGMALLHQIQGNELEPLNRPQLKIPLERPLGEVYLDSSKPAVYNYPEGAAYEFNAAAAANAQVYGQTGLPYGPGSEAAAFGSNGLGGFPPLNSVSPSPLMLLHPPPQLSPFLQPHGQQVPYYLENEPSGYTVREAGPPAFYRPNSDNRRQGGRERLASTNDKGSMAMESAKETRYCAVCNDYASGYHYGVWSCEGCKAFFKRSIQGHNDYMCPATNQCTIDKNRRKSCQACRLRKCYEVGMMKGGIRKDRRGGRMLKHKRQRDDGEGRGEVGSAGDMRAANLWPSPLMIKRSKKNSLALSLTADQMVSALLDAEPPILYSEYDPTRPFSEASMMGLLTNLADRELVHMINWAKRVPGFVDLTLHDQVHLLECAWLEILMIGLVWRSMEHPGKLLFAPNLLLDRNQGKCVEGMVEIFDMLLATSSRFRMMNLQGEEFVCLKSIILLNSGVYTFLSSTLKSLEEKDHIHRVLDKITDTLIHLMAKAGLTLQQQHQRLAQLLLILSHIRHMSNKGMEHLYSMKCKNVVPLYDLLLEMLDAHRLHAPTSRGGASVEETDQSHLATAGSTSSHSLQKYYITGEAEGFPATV

MCF7 [2] = experiment: Induction of apoptosis in human MCF7 cells at 1 uM after irradiation for 30 mins annexin V-FITC/PI double staining method; assay type: functional, cell-based
MCF7 [3] = experiment: Induction of cell cycle arrest in human MCF7 cells assessed as accumulation of cells at G1 phase at 1 uM after irradiation for 30 mins by propidium iodide based flow cytometry analysis; assay type: functional
MCF7 [4] = experiment: Induction of cell cycle arrest in human MCF7 cells assessed as accumulation of cells at G1 phase after irradiation by propidium iodide based flow cytometry analysis; assay type: functional; details: time 15-45 min, TDE = time-dependent effect
[5] = target: T1, Estrogen receptor (Homo sapiens); experiment: Binding affinity to human ERalpha assessed as change in entropy by isothermal titration calorimetry
Estrogen receptor [6] = target: T2, Estrogen receptor (Homo sapiens, UniProt P03372); experiment: Induction of degradation of human ERalpha in MCF7 cells irradiated with 460 light for 45 mins; assay type: cell-based
T2 sequence (P03372 whole entry): T1 sequence (whole entry)

[7] = target: T1, Estrogen receptor (Homo sapiens); experiment: Induction of degradation of human ERalpha by generation of singlet oxygen incubated for 3 hrs followed by irradiated with 460 +/- 10 nm LED light for 30 mins by circular dichroism spectroscopy; details: time 210.0 min
[8] = target: T1, Estrogen receptor (Homo sapiens); experiment: Induction of degradation of human ERalpha in human MCF7 cells by generation of singlet oxygen at 1 uM in presence of N-acetyl-L-cysteine by fluorescent probe based DCFH-DA assay; assay type: cell-based
MCF7 [9] = experiment: Antiproliferative activity against human MCF7 cells under dark condition; assay type: functional, cell-based
[10] = target: T1, Estrogen receptor (Homo sapiens); experiment: Induction of degradation of human ERalpha in MCF7 cells assessed as ERalpha level at 0.1 uM incubated for 6 hrs followed by irradiation for 30 min measured after 16 hrs; assay type: cell-based; details: time 22.5 hrs
MCF-10A [11] = experiment: Cytotoxicity against human MCF-10A cells upto 100 uM under dark condition; assay type: toxicity, cell-based
MCF7 [12] = experiment: Induction of cell cycle arrest in human MCF7 cells assessed as transition of cells from G1 to S phase after irradiation measured after 24 hrs by propidium iodide based flow cytometry analysis; assay type: functional
[13] = target: T1, Estrogen receptor (Homo sapiens); experiment: Induction of human ERalpha degradation-mediated apoptosis in human MCF7 cells assessed as loss of mitochondrial membrane potential at 0.01 uM irradiated for 45 mins by TMRM fluorescence based cytometric analysis; assay type: cell-based
[14] = target: T1, Estrogen receptor (Homo sapiens); experiment: Induction of degradation of human ERalpha in human MCF7 cells by generation of singlet oxygen at 1 uM in presence of glutathione by fluorescent probe based DCFH-DA assay; assay type: cell-based
[15] = target: T1, Estrogen receptor (Homo sapiens); experiment: Induction of degradation of human ERalpha in human MCF7 cells assessed as decrease in expression of c-MYC gene at 24 hrs; assay type: cell-based
MCF7 [16] = experiment: Antiproliferative activity against human MCF7 cells in presence of glutathione irradiated daily; assay type: functional, cell-based
[17] = target: T1, Estrogen receptor (Homo sapiens); experiment: Binding affinity to human ERalpha assessed as change in enthalpy by isothermal titration calorimetry
[18] = target: T1, Estrogen receptor (Homo sapiens); experiment: Induction of degradation of human ERalpha in human MCF7 cells by generation of singlet oxygen at 1 uM in presence of dithiothreitol by fluorescent probe based DCFH-DA assay; assay type: cell-based
[19] = target: T1, Estrogen receptor (Homo sapiens); experiment: Induction of degradation of human ERalpha irradiated with 460 +/- 10 nm LED light for 15 mins by gel electrophoresis
[20] = Drug uptake in human MCF7 cells assessed as peak mean fluorescence intensity measured after 6 to 12hrs by cytometric analysis; assay type: ADME, cell-based
MCF7 [21] = experiment: Antiproliferative activity against human MCF7 cells in presence of N-acetyl-L-cysteine irradiated daily; assay type: functional, cell-based
MCF7 [22] = experiment: Antiproliferative activity against human MCF7 cells assessed as cell viability at irradiation for 15 mins measured after 72 hrs; assay type: functional, cell-based; details: MCF7, light or radiation study
MCF7 [23] = experiment: Induction of cell cycle arrest in human MCF7 cells assessed as cells at S phase after irradiation measured after 16 hrs by propidium iodide based flow cytometry analysis; assay type: functional
[24] = target: T1, Estrogen receptor (Homo sapiens); experiment: Induction of degradation of human ERalpha in MCF7 cells at 0.1 uM incubated for 6 hrs followed by irradiation for 30 min measured after 2 hrs; assay type: cell-based; details: time 8.5 hrs
MCF7 [25] = experiment: Antiproliferative activity against human MCF7 cells assessed as cell viability at irradiation for 15 mins daily for 3 days; assay type: functional, cell-based; details: MCF7, light or radiation study
MCF7 [26] = experiment: Antiproliferative activity against human MCF7 cells assessed as cell viability at irradiation for 30 mins measured after 72 hrs; assay type: functional, cell-based; details: MCF7, light or radiation study
Estrogen receptor [27] = target: T2, Estrogen receptor; experiment: Induction of degradation of human ERalpha in MCF7 cells irradiated with 460 light for 30 mins; assay type: cell-based
[28] = target: T1, Estrogen receptor (Homo sapiens); experiment: Induction of degradation of human ERalpha in human MCF7 cells at 1 uM incubated for 1 to 12 hrs in dark after 3 hrs by immunoblot analysis; assay type: cell-based; details: time 4-15 hrs
[29] = target: T1, Estrogen receptor (Homo sapiens); experiment: Induction of degradation of human ERalpha in MCF7 cells at 0.01 to 0.1 uM irradiated with 460 light for 15 to 60 mins; assay type: cell-based; details: dose 0.01-0.1 µM, time 15-60 min
[30] = target: T1, Estrogen receptor (Homo sapiens); experiment: Induction of human ERalpha degradation-mediated apoptosis in human MCF7 cells assessed as increase in cytochrome c release from mitochondria at 0.01 uM irradiated for 45 mins by ELISA analysis
MCF7 [31] = experiment: Antiproliferative activity against human MCF7 cells in presence of dithiothreitol irradiated daily; assay type: functional, cell-based
[32] = target: T1, Estrogen receptor (Homo sapiens); experiment: Induction of human ERalpha degradation-mediated apoptosis in human MCF7 cells assessed as increase in expression level of p53 at 0.01 uM by ELISA analysis; assay type: cell-based
MCF7 [33] = experiment: Induction of apoptosis in human MCF7 cells assessed as late apoptotic cells at 0.01 to 1 uM irradiated 30 mins for 3 days by annexin V-FITC/PI double staining method; assay type: functional, cell-based; details: dose 0.01-1 µM
[34] = target: T1, Estrogen receptor (Homo sapiens); experiment: Induction of human ERalpha degradation-mediated apoptosis in human MCF7 cells assessed as increase in expression level of Bax at 0.01 uM by ELISA analysis; assay type: cell-based
MCF7 [35] = experiment: Induction of cell cycle arrest in human MCF7 cells assessed as decrease of cells at G2/M phase after irradiation by propidium iodide based flow cytometry analysis; assay type: functional; details: time 15-45 min, TDE = time-dependent effect
MCF7 [36] = experiment: Antiproliferative activity against human MCF7 cells assessed as cell viability at irradiation for 30 mins daily for 3 days; assay type: functional, cell-based; details: MCF7, light or radiation study
[37] = target: T1, Estrogen receptor (Homo sapiens); experiment: Induction of degradation of human ERalpha by generation of singlet oxygen incubated for 3 hrs followed by irradiated with 460 +/- 10 nm LED light for 15 mins by circular dichroism spectroscopy; details: time 195.0 min
[38] = target: T1, Estrogen receptor (Homo sapiens); experiment: Induction of human ERalpha degradation in human MCF7 cells assessed as increase in response of cell to ABT-263-mediated Bcl-2 inhibition; assay type: cell-based
MCF7 [39] = experiment: Antiproliferative activity against human MCF7 cells assessed as cell viability at irradiation for 45 mins measured after 72 hrs; assay type: functional, cell-based; details: MCF7, light or radiation study
MCF7 [40] = experiment: Induction of cell cycle arrest in human MCF7 cells assessed accumulation of cells at G1 phase after irradiation measured after 16 hrs by propidium iodide based flow cytometry analysis; assay type: functional
[41] = target: T1, Estrogen receptor (Homo sapiens); experiment: Induction of human ERalpha degradation-mediated apoptosis in human MCF7 cells assessed as increase in expression level of Bak at 0.01 uM by ELISA analysis; assay type: cell-based
Estrogen receptor [42] = target: T2, Estrogen receptor; experiment: Binding affinity to human ERalpha by competitive fluorometric receptor binding assay
MCF-10A [43] = experiment: Cytotoxicity against human MCF-10A cells upto 100 uM assessed as cell viability at irradiation for 15 to 45 mins measured after 72 hrs; assay type: toxicity, cell-based; details: time 72.25-72.75 hrs
[44] = target: T1, Estrogen receptor (Homo sapiens); experiment: Induction of degradation of human ERalpha in human MCF7 cells assessed as decrease in expression of cyclin D1 gene at 24 hrs; assay type: cell-based
MCF7 [45] = experiment: Induction of cell cycle arrest in human MCF7 cells assessed as decrease of cells at S phase after irradiation by propidium iodide based flow cytometry analysis; assay type: functional; details: time 15-45 min, TDE = time-dependent effect
[46] = target: T1, Estrogen receptor (Homo sapiens); experiment: Induction of degradation of human ERalpha in MCF7 cells at 0.1 uM incubated for 6 hrs followed by irradiation for 30 min measured after 2 to 8 hrs; assay type: cell-based; details: time 8.5-14.5 hrs, TDE = time-dependent effect
[47] = target: T1, Estrogen receptor (Homo sapiens); experiment: Induction of degradation of human ERalpha in MCF7 cells at 1 uM incubated for 6 hrs followed by irradiation for 30 min measured for 24 hrs; assay type: cell-based; details: time 30.5 hrs
[48] = target: T1, Estrogen receptor (Homo sapiens); experiment: Induction of degradation of human ERalpha irradiated with 460 +/- 10 nm LED light for 30 to 45 mins by gel electrophoresis; details: time 30-45 min
[49] = target: T1, Estrogen receptor (Homo sapiens); experiment: Induction of degradation of human ERalpha in human MCF7 cells at 1 uM incubated for 1 to 6 hrs followed by irradiated light of 460 nm for 30 mins measured after 3 hrs by immunoblot analysis; assay type: cell-based; details: time 4.5-9.5 hrs
[50] = target: T1, Estrogen receptor (Homo sapiens); experiment: Induction of human ERalpha degradation-mediated apoptosis in human MCF7 cells assessed as increase in expression level of Bcl-2 at 0.01 uM irradiated for 45 min by ELISA analysis; assay type: cell-based
MCF7 [51] = experiment: Antiproliferative activity against human MCF7 cells assessed as cell viability at irradiation for 45 mins daily for 3 days; assay type: functional, cell-based; details: MCF7, light or radiation study

Brc1ccc(-c2ccc(N(c3ccccc3)c3ccccc3)cc2)c2nsnc12
inactive: Activity [1] | Activity (MCF7 [2]) | Activity (MCF7 [3])

C[C@]12CC[C@@H]3c4ccc(O)cc4CC[C@H]3[C@@H]1CC[C@@]2(O)C#Cc1ccc(-c2ccc(N(c3ccccc3)c3ccccc3)cc2)c2nsnc12
5.05: pIC50 (MCF7 [22])
inactive: Activity [8] | Activity (MCF7 [9]) | Activity [14] | Activity (MCF7 [16]) | Activity [18] | Activity (MCF7 [21]) | Activity (MCF7 [23]) | Activity (MCF7 [31]) | Activity [50]
4.77: pEC50 (Estrogen receptor [27])
5.21: pIC50 (MCF7 [26])
5.46: pIC50 (MCF7 [25])
7.66: pIC50 (MCF7 [51])
5.23: pIC50 (MCF7 [39])
90%: Activity [10]
6.96: pIC50 (MCF7 [36])
Active: Drug uptake [20]
-4.39 kcal/mol: deltaH [17]
7.14: pKi (Estrogen receptor [42])
52.2 J/mol/K: deltaS [5]
6.30: pEC50 (Estrogen receptor [6])
Non-Toxic: Activity (MCF-10A [11]) | Activity (MCF-10A [43])
active: Activity (MCF7 [4]) Tde | Activity [7] | Activity (MCF7 [12]) | Activity [13] | Activity [15] | Activity [19] | Activity [24] | Activity [28] | Activity [29] | Activity [30] | Activity [32] | Activity (MCF7 [33]) | Activity [34] | Activity (MCF7 [35]) Tde | Activity [37] | Activity [38] | Activity (MCF7 [40]) | Activity [41] | Activity [44] | Activity (MCF7 [45]) Tde | Activity [46] Tde | Activity [47] | Activity [48] | Activity [49]
